This test concerns Vaccinia virus. The test can be described thus: Antiviral activity against Vaccinia virus infected in human HELF cells assessed as reduction in virus-induced cytopathogenicity incubated for 7 days by microscopic analysis. The test is classed as functional, organism-based. The note with it: Orthopoxvirus vaccinia; for EC50: 168 h. For orientation: Protection from cytopathic effect is a common read-out in antiviral testing.

SMILES strings stand for the structures. Active and inactive are the calls of the source. The rule behind the calls is not given here. Bounds are passed on as bounds.

Regarding `CC(C)(C)c1cn(C[C@H](O)[C@H]2OC(=O)C(OCc3ccccc3)=C2OCc2ccccc2)nn1`, the result was inactive. As a reminder, the EC50 is the midpoint of the concentration-response curve. Take `Nc1nc(O)c2ncn(COC(CO)CO)c2n1` [GANCICLOVIR]: the concentration for a half-maximal effect (EC50) was > 100 µM. On the same count and under the same terms, the same measure for `CCCCc1cn(C/C=C2\OC(=O)C(OCc3ccccc3)=C2OCc2ccccc2)nn1`: > 100 µM. Consider `CC(C)(C)c1cn(C/C=C2\OC(=O)C(OCc3ccccc3)=C2OCc2ccccc2)nn1`, for which the outcome was inactive.

Regarding `O=C1O[C@H]([C@@H](O)Cn2cc(C3CC3)nn2)C(OCc2ccccc2)=C1OCc1ccccc1`, the outcome was inactive. Consider `O=C1O/C(=C\Cn2cc(-c3cccc(O)c3)nn2)C(OCc2ccccc2)=C1OCc1ccccc1`, for which the result was inactive. On the same count and under the same terms, the same measure for `COc1ccc(-c2cn(C/C=C3\OC(=O)C(OCc4ccccc4)=C3OCc3ccccc3)nn2)cc1`: “inactive”; for `C[Si](C)(C)c1cn(C[C@H](O)[C@H]2OC(=O)C(OCc3ccccc3)=C2OCc2ccccc2)nn1`: “inactive”. For `O=c1[nH]c(=O)n([C@H]2C[C@H](O)[C@@H](CO)O2)cc1/C=C/Br` [BRIVUDINE], the EC50 came to 85 µM. As for `COc1ccccc1-c1cn(C/C=C2\OC(=O)C(OCc3ccccc3)=C2OCc2ccccc2)nn1`, the result was inactive. Same read-out and setting: the same measure for `CCCCc1cn(C[C@H](O)[C@H]2OC(=O)C(OCc3ccccc3)=C2OCc2ccccc2)nn1`: “inactive”. The same measure, in the same setting: the same measure for `Cc1ccc(-c2cn(C/C=C3\OC(=O)C(OCc4ccccc4)=C3OCc3ccccc3)nn2)cc1`: “inactive”. Same read-out and setting: the same measure for `O=C1O/C(=C\Cn2cc(-c3ccc(Br)cc3)nn2)C(OCc2ccccc2)=C1OCc1ccccc1`: “inactive”. `O=C1O/C(=C\Cn2cc(CCO)nn2)C(OCc2ccccc2)=C1OCc1ccccc1`: the result was inactive.

For the molecule `CCCCCCCCCCc1cn(C[C@H](O)[C@H]2OC(=O)C(OCc3ccccc3)=C2OCc2ccccc2)nn1`, the outcome was inactive. On the same count and under the same terms, the same measure for `O=C1O/C(=C\Cn2cc(-c3cc(F)cc(F)c3)nn2)C(OCc2ccccc2)=C1OCc1ccccc1`: “inactive”. Consider `Nc1nc2c(ncn2COCCO)c(=O)[nH]1` [ACYCLOVIR], for which the half-maximal effective concentration (EC50) is > 250 µM.

Values taken from ChEMBL document CHEMBL4406859, “Antitumor and antiviral activities of 4-substituted 1,2,3-triazolyl-2,3-dibenzyl-L-ascorbic acid derivatives” (Eur J Med Chem, 2019).
